The target of data set [1] is T1, Integrin alpha-V/beta-3 (Homo sapiens, UniProt P05106+P06756). Kind of data set: Inhibition of vitronectin binding to human integrin alphaVbeta3 measured after 4 hrs by ELISA. Format: protein-complex assay.
Data set [2] concerns the target T1, Integrin alpha-V/beta-3. The experiment in a line: Inhibition of vitronectin binding to integrin alphaVbeta3 in HDF pretreated for 20 mins followed by vitronectin addition measured after 40 mins by crystal violet staining based assay. The class given is protein-complex assay.
Data set [3] can be described thus: Stability in human serum at 1 mM incubated for 15 mins measured up to 180 mins by RP-HPLC method. Format: ADME, cell-free. The following applies: 0.25 h, 1000 µM.

The record followed here is ChEMBL document CHEMBL4138265, “Synthesis of a Chloroalkene Dipeptide Isostere-Containing Peptidomimetic and Its Biological Application” (ACS Med Chem Lett, 2018).

T1 sequence (P05106 27-788 limits assumed): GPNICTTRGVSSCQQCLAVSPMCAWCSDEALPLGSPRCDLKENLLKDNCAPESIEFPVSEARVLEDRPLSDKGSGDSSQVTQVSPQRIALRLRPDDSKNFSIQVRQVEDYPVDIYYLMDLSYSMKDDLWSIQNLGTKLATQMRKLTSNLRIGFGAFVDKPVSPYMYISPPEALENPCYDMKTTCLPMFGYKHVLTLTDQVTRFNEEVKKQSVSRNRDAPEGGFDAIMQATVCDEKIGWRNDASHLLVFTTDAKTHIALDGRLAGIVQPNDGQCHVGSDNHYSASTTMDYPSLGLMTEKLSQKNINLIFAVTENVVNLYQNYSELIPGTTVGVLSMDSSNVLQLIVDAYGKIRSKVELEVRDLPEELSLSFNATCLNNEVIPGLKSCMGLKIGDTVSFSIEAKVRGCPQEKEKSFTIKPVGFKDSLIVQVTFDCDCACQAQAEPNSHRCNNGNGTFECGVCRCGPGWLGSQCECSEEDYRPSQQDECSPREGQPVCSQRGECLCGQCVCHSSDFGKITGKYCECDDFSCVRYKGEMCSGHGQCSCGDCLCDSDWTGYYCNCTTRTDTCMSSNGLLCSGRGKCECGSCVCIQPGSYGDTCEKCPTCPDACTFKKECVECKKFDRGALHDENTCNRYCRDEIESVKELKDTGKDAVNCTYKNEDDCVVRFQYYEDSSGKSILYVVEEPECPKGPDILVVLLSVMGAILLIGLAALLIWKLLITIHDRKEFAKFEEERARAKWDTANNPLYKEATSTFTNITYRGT
T1 sequence (P06756 31-889 limits assumed): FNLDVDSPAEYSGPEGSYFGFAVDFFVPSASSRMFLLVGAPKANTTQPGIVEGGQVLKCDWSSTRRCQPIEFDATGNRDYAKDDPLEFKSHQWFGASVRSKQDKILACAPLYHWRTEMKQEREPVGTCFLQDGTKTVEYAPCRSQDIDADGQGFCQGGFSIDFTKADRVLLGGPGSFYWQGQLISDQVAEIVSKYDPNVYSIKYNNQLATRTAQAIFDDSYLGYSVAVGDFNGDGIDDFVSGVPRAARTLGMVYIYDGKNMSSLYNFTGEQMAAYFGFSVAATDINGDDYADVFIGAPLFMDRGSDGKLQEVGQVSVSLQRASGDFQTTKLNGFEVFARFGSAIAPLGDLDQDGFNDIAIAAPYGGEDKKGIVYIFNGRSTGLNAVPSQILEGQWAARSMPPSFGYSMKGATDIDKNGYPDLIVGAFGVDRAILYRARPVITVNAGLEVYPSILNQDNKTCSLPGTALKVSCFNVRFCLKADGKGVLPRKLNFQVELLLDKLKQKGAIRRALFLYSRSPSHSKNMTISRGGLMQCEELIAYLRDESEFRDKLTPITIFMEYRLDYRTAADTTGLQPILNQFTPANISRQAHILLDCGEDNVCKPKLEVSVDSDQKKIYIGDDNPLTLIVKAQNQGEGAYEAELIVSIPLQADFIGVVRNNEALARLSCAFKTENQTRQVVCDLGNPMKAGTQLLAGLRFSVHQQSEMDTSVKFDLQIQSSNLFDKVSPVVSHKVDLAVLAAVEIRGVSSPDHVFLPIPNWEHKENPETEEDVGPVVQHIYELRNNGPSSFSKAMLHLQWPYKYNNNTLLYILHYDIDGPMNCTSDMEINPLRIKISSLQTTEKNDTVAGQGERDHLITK
T1 sequence (P06756 891-1048 limits assumed): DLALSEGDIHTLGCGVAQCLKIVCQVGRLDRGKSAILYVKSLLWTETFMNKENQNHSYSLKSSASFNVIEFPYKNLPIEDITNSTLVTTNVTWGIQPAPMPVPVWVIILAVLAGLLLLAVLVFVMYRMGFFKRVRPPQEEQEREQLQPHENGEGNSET

`CC(C)[C@@H]1/C=C/[C@@H](Cc2ccccc2)NC(=O)[C@H](CC(=O)O)NC(=O)CNC(=O)[C@H](CCCNC(=N)N)NC1=O` displayed an IC50 at Integrin alpha-V/beta-3 [1] of 3.6 nM.
As for `C/C1=C\[C@@H](Cc2ccccc2)NC(=O)[C@H](CC(=O)O)NC(=O)CNC(=O)[C@H](CCCNC(=N)N)NC(=O)[C@@H]1C(C)C`, the concentration for half-maximal inhibition (IC50) on Integrin alpha-V/beta-3 [1] was found to be 2.4 nM.
As for `CC(C)[C@@H]1/C=C(\Cl)[C@@H](Cc2ccccc2)NC(=O)[C@H](CC(=O)O)NC(=O)CNC(=O)[C@H](CCCNC(=N)N)NC1=O`, the IC50 at Integrin alpha-V/beta-3 [2] is 0.497 nM. Moreover, the Stability result in data set [3] is recorded as “Stable”.
